# Source: patent US20250134874A1, “PHARMACEUTICAL FORMULATIONS COMPRISING 3-({[(4R)-7-{METHYL[4-(PROPAN-2-YL)PHENYL]AMINO}-3,4-DIHYDRO-2H-1-BENZOPYRAN-4-YL]METHYL}AMINO)PYRIDINE-4-CARBOXYLIC ACID” (TACHYON THERAPEUTICS, INC., priority 2021, published 2025)
# System: 301 cancer cell lines from different tumor types (OncoPanel; HD Biosciences)
# Assay: 2D cell viability inhibition assay (CellTiter-Glo) in cancer cell line panel
# Format: cell-based
# Design: key to AUC: AUC as fraction of the no-inhibition area (dose range × 0–100 % of control)
# Details: for Emax: in %
# Description: In a larger screening study, compound 1 was evaluated across a broad cancer cell line panel (OncoPanel; HD Biosciences) composed of 301 cancer cell lines from different tumor types.
# 2D cell viability inhibition assays were performed in multiwell plates seeded with cells from the panel. After seeding, the plates were cultured overnight in a humidified incubator at 37° C. to promote adherence. Assays were initiated in individual wells by adding either DMSO as a vehicle control, growth media as a blank, or serially diluted compound 1 (10 μM to 0.0005 μM with 1:3 serial dilution). Cultures were incubated for 168 hours after which the number of viable cells in each test well was assessed using the CellTiter-Glo® Luminescent Cell Viability Assay. Luminescence readouts were performed using an EnVision® Multilabel Reader and the compound 1 readouts were normalized to the DMSO control readouts, expressed as a percent of the control. Outliers were flagged out by visual inspection. Percent of control was plotted against the corresponding compound 1 concentration and the absolute IC50 value was determined using four-parameter logistic non-linear regression as the concentration where inhibition was 50% of the control. For maximum inhibition <50%, the absolute IC50 was reported as >10. In addition to EC50 and IC50, AUC was determined and was normalized to the area corresponding to theoretical no-inhibition (the rectangular area defined by the compound dose range and 0 to 100 in y). Emax was recorded as the minimum in y with the compound dose range. For those cell lines where Emax>40, EC50 was manually set to 10 μM. A hierarchical clustering algorithm based on Euclidean distance between the standardized input values and “Ward.D” method as implemented in R hclust function was used to visualize the compound 1 cellular potency data. The sensitive/moderate/resistant calls for each cell line was determined by visually inspecting the resulting clustering dendrogram. All the analyses were done in R Core Team.
# [1] = Homo sapiens, 143B, 143B cell line
# [2] = Homo sapiens, 647-V, 647V cell line
# [3] = Homo sapiens, 786-0, 7860 cell line
# [4] = Homo sapiens, A101D, A101D cell line
# [5] = Homo sapiens, A549, A549 cell line
# [6] = Homo sapiens, A2058, A2058 cell line
# [7] = Homo sapiens, A2780, A2780 cell line
# [8] = Homo sapiens, A-375, A375 cell line
# [9] = Homo sapiens, ACHN, ACHN cell line
# [10] = Homo sapiens, AGS, AGS cell line
# [11] = Homo sapiens, ASPC1, ASPC1 cell line
# [12] = Homo sapiens, AZ-521, AZ521 cell line
# [13] = Homo sapiens, BFTC-905, BFTC905 cell line
# [14] = Homo sapiens, BT-549, BT549 cell line
# [15] = Homo sapiens, BXPC-3, BXPC3 cell line
# [16] = Homo sapiens, C32, C32 cell line
# [17] = Homo sapiens, CAKI-1, CAKI1 cell line
# [18] = Homo sapiens, CFPAC-1, CFPAC1 cell line
# [19] = Homo sapiens, CHL-1, CHL1 cell line
# [20] = Homo sapiens, COLO 205, COLO205 cell line
# [21] = Homo sapiens, COLO-320-HSR, COLO320HSR cell line
# [22] = Homo sapiens, COLO-679, COLO679 cell line
# [23] = Homo sapiens, COLO-680N, COLO680N cell line
# [24] = Homo sapiens, COLO-741, COLO741 cell line
# [25] = Homo sapiens, COR-L279, CORL279 cell line
smiles,measurement,setting,value
"CC(C)c1ccc(N(C)c2ccc3c(c2)OCC[C@H]3CNc2cnccc2C(=O)O)cc1 [Compound 1, 3-({[(4R)-7-{methyl[4-(propan-2-yl)phenyl]amino}-3,4-dihydro-2H-1-benzopyran-4-yl]methyl}amino)pyridine-4-carboxylic acid]",AUC,HCC1599 cell line,0.4639
same,Emax,HCC1599 cell line,32.7
same,AUC,HCC1806 cell line,0.5325
same,Emax,HCC1806 cell line,36.87
same,AUC,"HCC1937, breast, ductal carcinoma, 168 hours",0.9094
same,AUC,HCC1954 cell line,0.5912
same,AUC,HCC2935 cell line,0.6922
same,AUC,HCT15 cell line,0.1838
same,Emax,HCT15 cell line,4.541
same,AUC,HCT116 cell line,0.5356
same,AUC,HEL cell line,0.5268
same,Emax,HEL cell line,28.89
same,AUC,HEP3B217 cell line,0.6448
same,IC50,HEP3B217 cell line,129 nM
same,AUC,HEPG2 cell line,0.6086
same,AUC,HL60 cell line,0.3703
same,Emax,HL60 cell line,9.446
same,AUC,HLE cell line,0.3839
same,Emax,HLE cell line,7.876
same,AUC,HLF cell line,0.4657
same,Emax,HLF cell line,18.25
same,EC50,"HLF, HLF cell line",11.5 nM
same,IC50,"HLF, HLF cell line",18 nM
same,AUC,HMCB cell line,0.5041
same,Emax,HMCB cell line,32.25
same,AUC,HPAC cell line,0.3965
same,AUC,HS294T cell line,0.6005
same,AUC,HS578T cell line,0.5373
same,Emax,HS578T cell line,32.75
same,AUC,"HS688AT, skin, NS, 168 hours",1.105
same,AUC,"HS695T, skin, NS, 168 hours",0.9238
same,AUC,"HS739T, breast, NS, 168 hours",0.8686
same,AUC,"HS839T, skin, NS, 168 hours",1.097
same,AUC,"HS852T, skin, NS, 168 hours",0.883
same,AUC,HSC2 cell line,0.4511
same,Emax,HSC2 cell line,26.01
same,AUC,HSC3 cell line,0.6313
same,AUC,HSC4 cell line,0.4347
same,Emax,HSC4 cell line,23.28
same,AUC,HT29 cell line,0.5741
same,AUC,HT55 cell line,0.4704
same,Emax,HT55 cell line,22.172
same,AUC,"HT144, skin, NS, 168 hours",0.8912
same,AUC,HT1080 cell line,0.5438
same,Emax,HT1080 cell line,29.74
same,AUC,HT1376 cell line,0.5519
same,AUC,HUH1 cell line,0.4145
same,Emax,HUH1 cell line,11.68
same,AUC,HUH7 cell line,0.3926
same,Emax,HUH7 cell line,7.054
same,AUC,"HUH28, biliary tract, NS, 168 hours",0.9862
same,AUC,HUTU80 cell line,0.3016
same,EC50,[1],13.9 nM
same,IC50,[1],14.4 nM
same,EC50,[2],11.2 nM
same,IC50,[2],12.2 nM
same,EC50,[3],11.7 nM
same,IC50,[3],22.5 nM
same,EC50,[4],6.91 nM
same,IC50,[4],11 nM
same,IC50,"Homo sapiens, A204, 168 h, A204, soft tissue, NS, 168 hours",> 10000 nM
same,EC50,[5],18.5 nM
same,IC50,[5],32.4 nM
same,EC50,[6],28.1 nM
same,IC50,[6],46.8 nM
same,EC50,[7],2.1 nM
same,IC50,[7],2.14 nM
same,EC50,[8],7.62 nM
same,IC50,[8],10.6 nM
same,EC50,[9],30.3 nM
same,IC50,[9],34.7 nM
same,EC50,[10],5.18 nM
same,IC50,[10],6.19 nM
same,EC50,[11],18.9 nM
same,IC50,[11],66.8 nM
same,EC50,[12],3.84 nM
same,IC50,[12],4.19 nM
same,EC50,[13],8.93 nM
same,IC50,[13],9.91 nM
same,IC50,"Homo sapiens, BT-20, 168 h, BT20, breast, ductal carcinoma, 168 hours",> 10000 nM
same,IC50,"Homo sapiens, BT-474, 168 h, BT474, breast, ductal carcinoma, 168 hours",> 10000 nM
same,EC50,[14],5.84 nM
same,IC50,[14],9.98 nM
same,EC50,[15],8.45 nM
same,IC50,[15],19.4 nM
same,IC50,"Homo sapiens, C2BBe1, 168 h, C2BBE1, large intestine, adenocarcinoma, 168 hours",> 10000 nM
same,EC50,[16],5.18 nM
same,IC50,[16],5.36 nM
same,EC50,[17],≥ 10000 nM
same,IC50,[17],4.43 nM
same,IC50,"Homo sapiens, CAL-27, 168 h, CAL27, upper aerodigestive tract, squamous cell carcinoma, 168 hours",> 10000 nM
same,IC50,"Homo sapiens, CAPAN-1, CAPAN1 cell line",116 nM
same,IC50,"Homo sapiens, CCF-STTG1, 168 h, CCFSTTG1, central nervous system, astrocytoma, 168 hours",> 10000 nM
same,EC50,[18],11.3 nM
same,IC50,[18],15.3 nM
same,EC50,[19],4.68 nM
same,IC50,[19],6.08 nM
same,EC50,[20],5.97 nM
same,IC50,[20],11.5 nM
same,EC50,[21],4.46 nM
same,IC50,[21],4.61 nM
same,EC50,[22],2340 nM
same,IC50,[22],2040 nM
same,EC50,[23],4.79 nM
same,IC50,[23],6.97 nM
same,EC50,[24],6.86 nM
same,IC50,[24],10.4 nM
same,IC50,"Homo sapiens, COLO-829, COLO829 cell line",> 10000 nM
same,EC50,[25],4.23 nM
same,IC50,[25],4.34 nM
same,IC50,"Homo sapiens, Calu-1, 168 h, CALU1, lung, squamous cell carcinoma, 168 hours",> 10000 nM
same,IC50,"Homo sapiens, Calu-3, 168 h, CALU3, lung, adenocarcinoma, 168 hours",> 10000 nM
same,EC50,"Homo sapiens, Calu-6, CALU6 cell line",11.5 nM
